Results taken from patent US20120035187A1 (priority 2009, published 2012).
Like-named read-outs stand apart in the source and are kept apart here. Marks after values point to notes of the source that are not given here.

Tests used:
PC12-HS cells = assay: Cytotoxicity by amyloid β fragment, cell survival (Evaluation C); format: cell-based; details: for Cell survival percentage (%): PC12-HS cells + amyloid β fragment
Experimental: A plurality of peptide fragments (called “AMYLOID β FRAGMENT” commercialized by AnaSpec, Inc., CA, USA, each peptide having the amino acid sequence of SEQ ID NO:1), which have an amino acid sequence positioning from 25th to 35th from the N-terminus of amyloid R peptide with human origin and have been recognized as a main factor of neurocyte death in Alzheimer's disease, were diluted with phosphate buffered saline (PBS) to give a concentration of 2 mM, and used after being aged at 37° C. for six hours to coagulate them to increase their cytotoxicity before use. […] Viability (%) of cells in each well was determined and shown in Table 1 by calculating a relative value when the fluorescent intensity of the control was regarded as 100%. While, the supernatant of cell culture, which had been cultured under the same conditions as above, was removed, and the resulting cells were fixed by the addition of 1% by volume of glutaraldehyde, which had been prepared by diluting with PBS, in a volume of 100 μl/well for 30 min. Thereafter, the cells were stained with […] Hoechst 33258 dye commercialized by SIGMA Corporation, Tokyo, Japan, for five min, observed at a magnitude corresponding to a visual filed containing about 100 cells under a phase contrast microscope and a fluorescent microscope, and counted. The occupied percentage (%) of cells with apoptosis against the total cells in one visual field was calculated and the data was also shown in Table 1. The judgment of cells with apoptosis was made with an index of fragmentation of cell nuclei and chromatin aggregation within the nuclei.
Then, the effect of the above-compounds' concentrations on the cytotoxicity by amyloid β fragment was further investigated. The above 6-compounds and NK-4 were used as test samples, and the protective effects of these compounds against cytotoxicity by amyloid β fragment were evaluated by the same conditions as used in Evaluation C in Experiment 3, except for adding each compound to a well inoculated with PC12-HS cells to give a final concentration as shown in Table 7.

[1] = target: T1, acetylcholine esterase (AchE) (Rattus norvegicus, UniProt P37136); assay: biochemical; format: biochemical; details: for action of inhibiting AchE activity (in words): Experiment 14, comparison of NK-4 analogues and NK-150
T1 sequence (P37136 32-614): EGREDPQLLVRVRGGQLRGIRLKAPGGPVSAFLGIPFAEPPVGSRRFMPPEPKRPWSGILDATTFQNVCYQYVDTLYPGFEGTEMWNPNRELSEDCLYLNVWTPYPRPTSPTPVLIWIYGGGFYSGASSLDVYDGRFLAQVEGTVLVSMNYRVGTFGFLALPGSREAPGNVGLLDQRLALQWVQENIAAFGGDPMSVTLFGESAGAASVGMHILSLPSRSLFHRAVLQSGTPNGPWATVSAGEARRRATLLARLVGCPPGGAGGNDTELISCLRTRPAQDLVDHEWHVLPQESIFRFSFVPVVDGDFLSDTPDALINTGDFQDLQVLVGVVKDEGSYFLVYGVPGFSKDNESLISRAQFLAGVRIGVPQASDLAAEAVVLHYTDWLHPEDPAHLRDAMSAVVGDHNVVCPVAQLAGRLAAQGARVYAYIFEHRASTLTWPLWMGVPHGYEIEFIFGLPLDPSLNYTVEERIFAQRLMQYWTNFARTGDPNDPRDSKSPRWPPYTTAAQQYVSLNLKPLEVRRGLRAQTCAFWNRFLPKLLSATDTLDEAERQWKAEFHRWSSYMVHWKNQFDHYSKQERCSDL

[2] = test system: primary neuron (neuron, astrocyte and microglia) prepared from brain cortex of a rat fetus; assay: Amyloid β fragment disorder in primary neuron; format: cell-based; details: concrete data not shown
Text: Though concrete data is not shown, using primary neuron (neuron, astrocyte and microglia) prepared from brain cortex of a rat fetus in place of PC12-HS cells, the influence of NK-4, NK-26, NK-234, NK-19 and NK-150 on amyloid β fragment disorder and hydrogen peroxide disorder was investigated.

[3] = final concentration of compound 12.5 ng/ml
[4] = final concentration of compound 50 ng/ml
[5] = final concentration of compound 200 ng/ml
[6] = final concentration of compound 800 ng/ml
[7] = compound concentration 0.78 μg/ml, read-out: Residual ratio of AchE activity (%)
[8] = compound concentration 1.56 μg/ml, read-out: Residual ratio of AchE activity (%)
[9] = compound concentration 3.13 μg/ml, read-out: Residual ratio of AchE activity (%)
[10] = compound concentration 6.25 μg/ml, read-out: Residual ratio of AchE activity (%)
[11] = compound concentration 12.5 μg/ml, read-out: Residual ratio of AchE activity (%)
[12] = compound concentration 25 μg/ml, read-out: Residual ratio of AchE activity (%)
[13] = concentration of compound 0.78 μg/ml
[14] = concentration of compound 1.56 μg/ml
[15] = concentration of compound 3.13 μg/ml
[16] = concentration of compound 6.25 μg/ml
[17] = concentration of compound 12.5 μg/ml
[18] = concentration of compound 25 μg/ml
[19] = concentration of compound 50 μg/ml
[20] = concentration that suppresses AchE activity by 50%, calculated from residual ratios

## COc1ccc2oc(/C=C/c3ccc(N(C)C)cc3)[n+](C)c2c1 [NK-1516]
PC12-HS cells; [3]
  Cell survival percentage (%): 34 ± 5%
PC12-HS cells; [4]
  Cell survival percentage (%): 29 ± 5%
PC12-HS cells; [5]
  Cell survival percentage (%): 31 ± 3%
PC12-HS cells; [6]
  Cell survival percentage (%): 70 ± 11%

## CC[n+]1ccccc1/C=C/c1ccc(N(C)C)cc1 [NK-557]
[1]; [7]
  remaining activity at 0.78 µg/mL: 110 ± 1%
[1]; [8]
  remaining activity at 1.56 µg/mL: 107 ± 2%
[1]; [9]
  remaining activity at 3.13 µg/mL: 97 ± 5%
[1]; [10]
  remaining activity at 6.25 µg/mL: 97 ± 3%
[1]; [11]
  remaining activity at 12.5 µg/mL: 97 ± 4%
[1]; [12]
  remaining activity at 25 µg/mL: 88 ± 9%
PC12-HS cells; [3]
  Cell survival percentage (%): 36 ± 3%
PC12-HS cells; [4]
  Cell survival percentage (%): 114 ± 9%
PC12-HS cells; [5]
  Cell survival percentage (%): 94 ± 11%
PC12-HS cells; [6]
  Cell survival percentage (%): 73 ± 1%

## CCN1/C(=C/C=C(/C=C/c2sc3ccccc3[n+]2CC)c2sc3ccccc3[n+]2CC)Sc2ccccc21.[I-].[I-] [NK-100]
[1]; AchE solution from PC12-HS cells, read-out: IC50 (concentration of a compound inhibiting the AchE activity of 50%) (converted)
  IC50: 14.6 µM
[1]; [7]
  remaining activity at 0.78 µg/mL: 77 ± 18%
[1]; [8]
  remaining activity at 1.56 µg/mL: 68 ± 16%
[1]; [9]
  remaining activity at 3.13 µg/mL: 67 ± 3%
[1]; [10]
  remaining activity at 6.25 µg/mL: 60 ± 3%
[1]; [11]
  remaining activity at 12.5 µg/mL: 49 ± 5%
[1]; [12]
  remaining activity at 25 µg/mL: 43 ± 3%
PC12-HS cells; [3]
  Cell survival percentage (%): 47 ± 2%
PC12-HS cells; [4]
  Cell survival percentage (%): 88 ± 12%
PC12-HS cells; [5]
  Cell survival percentage (%): 60 ± 5%
PC12-HS cells; [6]
  Cell survival percentage (%): 44 ± 4%

## CCN1C=CC(=CC=C(C=Cc2cc[n+](CC)c3ccccc23)c2cc[n+](CC)c3ccccc23)c2ccccc21.[I-].[I-] [NK-4]
[2]
  suppressing amyloid β fragment disorder: actions of suppressing
[1]; AchE solution from PC12-HS cells
  IC50 (concentration of a compound inhibiting the AchE activity of 50%): 3.3 µg/mL
[1]
  action of inhibiting AchE activity (in words): strongly inhibited AchE activity
[1]; compound concentration 0.78 μg/ml
  Residual ratio of AchE activity (%): 84 ± 6%
[1]; compound concentration 1.56 μg/ml
  Residual ratio of AchE activity (%): 66 ± 7%
[1]; compound concentration 3.13 μg/ml
  Residual ratio of AchE activity (%): 42 ± 4 %
[1]; compound concentration 6.25 μg/ml
  Residual ratio of AchE activity (%): 37 ± 10 %
[1]; compound concentration 12.5 μg/ml
  Residual ratio of AchE activity (%): 38 ± 2 %
[1]; compound concentration 25 μg/ml
  Residual ratio of AchE activity (%): 30 ± 8 %
[1]; [13]
  Residual ratio of AchE activity (%): 91 ± 4%
[1]; [14]
  Residual ratio of AchE activity (%): 47 ± 4 %
[1]; [15]
  Residual ratio of AchE activity (%): 41 ± 9 %
[1]; [16]
  Residual ratio of AchE activity (%): 38 ± 7 %
[1]; [17]
  Residual ratio of AchE activity (%): 24 ± 2 %
[1]; [18]
  Residual ratio of AchE activity (%): 25 ± 3 %
[1]; [19]
  Residual ratio of AchE activity (%): 22 ± 2 %
[1]; [20]
  IC50: 1.5 µg/mL
PC12-HS cells; NK-4 200 ng/ml
  Survibal percentage of cells when admixed with cytotoxic factor (%) Amyloid β fragment: 129 ** %
PC12-HS cells; NK-4 1000 ng/ml
  Survibal percentage of cells when admixed with cytotoxic factor (%) Amyloid β fragment: 97 ** %
PC12-HS cells; NK-4 5000 ng/ml
  Survibal percentage of cells when admixed with cytotoxic factor (%) Amyloid β fragment: 97 ** %
PC12-HS cells; PC12-HS cells
  minimum concentration exerting protection action against injury through amyloid β fragment: 40 ng/mL
PC12-HS cells; [3]
  Cell survival percentage (%): 34 ± 1%
PC12-HS cells; [4]
  Cell survival percentage (%): 69 ± 7%
PC12-HS cells; [5]
  Cell survival percentage (%): 122 ± 32%
PC12-HS cells; [6]
  Cell survival percentage (%): 89 ± 4%
PC12-HS cells; PC12-HS cells, 50 μM amyloid β fragment, 3 days, NK-4 40 ng/ml
  Survibal percentage of cells when admixed with cytotoxic factor (%) Amyloid β fragment: 89 ** %

## CCCCN1C=C/C(=C/C=C(/C=C/c2cc[n+](CCCC)c3ccccc23)c2cc[n+](CCCC)c3ccccc23)c2ccccc21 [NK-26]
[2]
  suppressing amyloid β fragment disorder: actions of suppressing
[1]; concentration of compound 0.78 μg/ml, read-out: Residual ratio of AchE activity (%)
  remaining activity at 0.78 µg/mL: 94 ± 11%
[1]; concentration of compound 1.56 μg/ml, read-out: Residual ratio of AchE activity (%)
  remaining activity at 1.56 µg/mL: 84 ± 9%
[1]; concentration of compound 3.13 μg/ml, read-out: Residual ratio of AchE activity (%)
  remaining activity at 3.13 µg/mL: 88 ± 8%
[1]; concentration of compound 6.25 μg/ml, read-out: Residual ratio of AchE activity (%)
  remaining activity at 6.25 µg/mL: 88 ± 7%
[1]; concentration of compound 12.5 μg/ml, read-out: Residual ratio of AchE activity (%)
  remaining activity at 12.5 µg/mL: 69 ± 5%
[1]; concentration of compound 25 μg/ml, read-out: Residual ratio of AchE activity (%)
  remaining activity at 25 µg/mL: 48 ± 4%
[1]; concentration of compound 50 μg/ml, read-out: Residual ratio of AchE activity (%)
  remaining activity at 50 µg/mL: 36 ± 9%
[1]; concentration that suppresses AchE activity by 50%, calculated from residual ratios, read-out: IC50 (μg/ml) (converted)
  IC50: 37.6 µM

## CCCN1C=CC(=CC=C(C=Cc2cc[n+](CCC)c3ccccc23)c2cc[n+](CCC)c3ccccc23)c2ccccc21.[I-].[I-] [NK-234]
[2]
  suppressing amyloid β fragment disorder: actions of suppressing
[1]
  action of inhibiting AchE activity (in words): strongly inhibited AchE activity
[1]; [13]
  Residual ratio of AchE activity (%): 77 ± 21%
[1]; [14]
  Residual ratio of AchE activity (%): 77 ± 13%
[1]; [15]
  Residual ratio of AchE activity (%): 47 ± 11 %
[1]; [16]
  Residual ratio of AchE activity (%): 45 ± 9 %
[1]; [17]
  Residual ratio of AchE activity (%): 30 ± 12 %
[1]; [18]
  Residual ratio of AchE activity (%): 26 ± 6 %
[1]; [19]
  Residual ratio of AchE activity (%): 12 ± 6 %
[1]; [20]
  IC50: 3.0 µg/mL

## CN(C)c1ccc(/C=C/c2oc3ccccc3[n+]2C)cc1 [NK-528]
PC12-HS cells; [3]
  Cell survival percentage (%): 40 ± 9%
PC12-HS cells; [4]
  Cell survival percentage (%): 36 ± 4%
PC12-HS cells; [5]
  Cell survival percentage (%): 50 ± 10%
PC12-HS cells; [6]
  Cell survival percentage (%): 111 ± 7%
